From ChEMBL document CHEMBL1275469, “VIM-15 and VIM-16, two new VIM-2-like metallo-beta-lactamases in Pseudomonas aeruginosa isolates from Bulgaria and Germany” (2008)
Converted amounts (≈) assume the structure as drawn.

Assays:
Pseudomonas aeruginosa [1] = experiment: Ratio of Kcat to Km for Pseudomonas aeruginosa 9551 beta-lactamase VIM-15 relative to cephaloridine
Pseudomonas aeruginosa [2] = experiment: microbe, parasite or virus in culture; conditions: Pseudomonas aeruginosa, 9551, Urine
Escherichia coli [3] = experiment: Antimicrobial activity against Escherichia coli DH5alpha harboring beta-lactamase VIM-2 by agar dilution method; type: functional; conditions: DH5[alpha]
Pseudomonas aeruginosa [4] = experiment: Antimicrobial activity against Pseudomonas aeruginosa 166301 expressing beta-lactamase VIM-16 obtained from urine of patient by agar dilution method; type: functional
Pseudomonas aeruginosa [5] = experiment: Activity of Pseudomonas aeruginosa 166301 beta-lactamase VIM-16 relative to cephaloridine
Pseudomonas aeruginosa [6] = experiment: Ratio of Kcat to Km for Pseudomonas aeruginosa 9551 beta-lactamase VIM-15
Pseudomonas aeruginosa [7] = experiment: Activity of Pseudomonas aeruginosa 9551 beta-lactamase VIM-15 relative to cephaloridine
Pseudomonas aeruginosa [8] = experiment: Activity of Pseudomonas aeruginosa 9551 beta-lactamase VIM-15
Pseudomonas aeruginosa [9] = experiment: Activity of Pseudomonas aeruginosa 166301 beta-lactamase VIM-16
Pseudomonas aeruginosa [10] = experiment: Ratio of Kcat to Km for Pseudomonas aeruginosa 166301 beta-lactamase VIM-16 relative to cephaloridine
Escherichia coli [11] = experiment: Antimicrobial activity against Escherichia coli DH5alpha by agar dilution method; type: functional; conditions: DH5[alpha]
Pseudomonas aeruginosa [12] = experiment: Ratio of Kcat to Km for Pseudomonas aeruginosa 166301 beta-lactamase VIM-16
Escherichia coli [13] = experiment: Antimicrobial activity against Escherichia coli DH5alpha harboring beta-lactamase VIM-15 by agar dilution method; type: functional; conditions: DH5[alpha]
Escherichia coli [14] = experiment: Antimicrobial activity against Escherichia coli DH5alpha harboring beta-lactamase VIM-16 by agar dilution method; type: functional; conditions: DH5[alpha]
[15] = target: Beta-lactamase VIM-2 (Pseudomonas aeruginosa) (UniProt Q9K2N0); experiment: Activity of Pseudomonas aeruginosa COL-1 beta-lactamase VIM-2 relative to cephaloridine
[16] = target: Beta-lactamase VIM-2 (Pseudomonas aeruginosa) (UniProt Q9K2N0); experiment: Ratio of Kcat to Km for Pseudomonas aeruginosa COL-1 beta-lactamase VIM-2 relative to cephaloridine
Escherichia coli [17] = experiment: Antimicrobial activity against Escherichia coli DH5alpha harboring beta-lactamase VIM-2 by agar dilution method in presence of beta-lactamase inhibitor Tazobactam; type: functional; conditions: DH5[alpha]
Escherichia coli [18] = experiment: Antimicrobial activity against Escherichia coli DH5alpha by agar dilution method in presence of beta-lactamase inhibitor Tazobactam; type: functional; conditions: DH5[alpha]
Pseudomonas aeruginosa [19] = experiment: Antimicrobial activity against Pseudomonas aeruginosa 166301 expressing beta-lactamase VIM-16 obtained from urine of patient by agar dilution method in presence of beta-lactamase inhibitor Tazobactam; type: functional; conditions: Pseudomonas aeruginosa, 166301, Urine
Escherichia coli [20] = experiment: Antimicrobial activity against Escherichia coli DH5alpha harboring beta-lactamase VIM-16 by agar dilution method in presence of beta-lactamase inhibitor Tazobactam; type: functional; conditions: DH5[alpha]
Pseudomonas aeruginosa [21] = experiment: Antimicrobial activity against Pseudomonas aeruginosa 9551 expressing beta-lactamase VIM-15 obtained from urine of patient by agar dilution method in presence of beta-lactamase inhibitor Tazobactam; type: functional; conditions: Pseudomonas aeruginosa, 9551, Urine
Escherichia coli [22] = experiment: Antimicrobial activity against Escherichia coli DH5alpha harboring beta-lactamase VIM-15 by agar dilution method in presence of beta-lactamase inhibitor Tazobactam; type: functional; conditions: DH5[alpha]
[23] = Pseudomonas aeruginosa, 166301, Urine

Compound | Activity (Pseudomonas aeruginosa [1]) | MIC (Pseudomonas aeruginosa [2]) | MIC (Escherichia coli [3]) | MIC (Pseudomonas aeruginosa [4]; [23]) | Activity (Pseudomonas aeruginosa [5]) | kcat/Km (Pseudomonas aeruginosa [6]) | Activity (Pseudomonas aeruginosa [7]) | Km (Pseudomonas aeruginosa [8]) | kcat (Pseudomonas aeruginosa [8]) | Km (Pseudomonas aeruginosa [9]) | kcat (Pseudomonas aeruginosa [9]) | Activity (Pseudomonas aeruginosa [10]) | MIC (Escherichia coli [11]) | kcat/Km (Pseudomonas aeruginosa [12]) | MIC (Escherichia coli [13]) | MIC (Escherichia coli [14]) | other results
CO/N=C(\C(=O)N[C@@H]1C(=O)N2C(C(=O)O)=C(COC(C)=O)CS[C@H]12)c1csc(N)n1 [CEFOTAXIME] | 300% | > 256 µg/mL | 1 µg/mL (≈ 2.2 µM) | > 256 µg/mL | 91% | 6.9e+06 M⁻¹ s⁻¹ | 47% | 13 µM | 90 s⁻¹ | 240 µM | 81 s⁻¹ | 530% | 0.03 µg/mL (≈ 0.0659 µM) | 340000 M⁻¹ s⁻¹ | 4 µg/mL (≈ 8.78 µM) | 2 µg/mL (≈ 4.39 µM) | 
C[C@@H](O)[C@H]1C(=O)N2C(C(=O)O)=C(S[C@@H]3CN[C@H](C(=O)N(C)C)C3)[C@H](C)[C@H]12 [MEROPENEM] |  | 128 µg/mL (≈ 334 µM) | 0.03 µg/mL (≈ 0.0782 µM) | > 128 µg/mL |  |  |  |  |  |  |  | 110% | 0.016 µg/mL (≈ 0.0417 µM) |  | 0.03 µg/mL (≈ 0.0782 µM) | 0.03 µg/mL (≈ 0.0782 µM) | Activity [15]: 1.8%; Activity [16]: 62%
C[C@H]1[C@H](NC(=O)/C(=N\OC(C)(C)C(=O)O)c2csc(N)n2)C(=O)N1S(=O)(=O)O [AZTREONAM] |  | 16 µg/mL (≈ 36.7 µM) | 0.016 µg/mL (≈ 0.0367 µM) | 32 µg/mL (≈ 73.5 µM) | < 0.12% |  | < 0.016% |  | < 0.031 s⁻¹ |  | < 0.11 s⁻¹ |  | 0.016 µg/mL (≈ 0.0367 µM) |  | 0.016 µg/mL (≈ 0.0367 µM) | 0.016 µg/mL (≈ 0.0367 µM) | 
GENTAMICIN |  |  | 0.13 µg/mL |  |  |  |  |  |  |  |  |  | 0.13 µg/mL |  | 0.13 µg/mL | 0.13 µg/mL | MIC (Pseudomonas aeruginosa [4]): > 128 µg/mL
C[C@@H](O)[C@H]1C(=O)N2C(C(=O)O)=C(SCCNC=N)C[C@H]12 [IMIPENEM ANHYDROUS] | 370% | > 128 µg/mL |  | > 128 µg/mL | 51% | 8.4e+06 M⁻¹ s⁻¹ | 32% | 7.3 µM | 61 s⁻¹ | 89 µM | 45 s⁻¹ | 800% |  | 510000 M⁻¹ s⁻¹ | 0.5 µg/mL (≈ 1.67 µM) |  | Activity [15]: 17%; Activity [16]: 380%
CC1(C)S[C@@H]2[C@H](NC(=O)Cc3ccccc3)C(=O)N2[C@H]1C(=O)O |  |  |  |  |  |  |  |  |  |  |  | 800% |  |  |  |  | 
NC[C@H]1O[C@H](O[C@H]2[C@H](O)[C@@H](O[C@H]3O[C@H](CO)[C@@H](O)[C@H](N)[C@H]3O)[C@H](N)C[C@@H]2N)[C@H](N)C[C@@H]1O [TOBRAMYCIN] |  | 8 µg/mL (≈ 17.1 µM) | 0.25 µg/mL (≈ 0.535 µM) | > 128 µg/mL |  |  |  |  |  |  |  |  | 0.25 µg/mL (≈ 0.535 µM) |  | 0.25 µg/mL (≈ 0.535 µM) | 0.25 µg/mL (≈ 0.535 µM) | 
CC(C)(O/N=C(\C(=O)N[C@@H]1C(=O)N2C(C(=O)[O-])=C(C[n+]3ccccc3)CS[C@H]12)c1csc(N)n1)C(=O)O [CEFTAZIDIME] | 1.2% | 64 µg/mL (≈ 117 µM) | 1 µg/mL (≈ 1.83 µM) | 64 µg/mL (≈ 117 µM) | 0.25% | 27000 M⁻¹ s⁻¹ | 0.53% | 37 µM | 1 s⁻¹ | 150 µM | 0.22 s⁻¹ | 2.2% | 0.13 µg/mL (≈ 0.238 µM) | 1400 M⁻¹ s⁻¹ | 0.5 µg/mL (≈ 0.915 µM) | 0.5 µg/mL (≈ 0.915 µM) | 
CO/N=C(\C(=O)N[C@@H]1C(=O)N2C(C(=O)[O-])=C(C[N+]3(C)CCCC3)CS[C@H]12)c1csc(N)n1 |  | 32 µg/mL (≈ 66.6 µM) | 0.03 µg/mL (≈ 0.0624 µM) | 32 µg/mL (≈ 66.6 µM) | 0.35% | 76000 M⁻¹ s⁻¹ | 5% | 130 µM | 9.5 s⁻¹ | 210 µM | 0.31 s⁻¹ | 2.3% | 0.016 µg/mL (≈ 0.0333 µM) | 1500 M⁻¹ s⁻¹ | 0.03 µg/mL (≈ 0.0624 µM) | 0.03 µg/mL (≈ 0.0624 µM) | 
O=C(Cc1cccs1)N[C@@H]1C(=O)N2C(C(=O)[O-])=C(C[n+]3ccccc3)CS[C@H]12 | 100% |  |  |  | 100% | 2.3e+06 M⁻¹ s⁻¹ | 100% | 83 µM | 190 s⁻¹ | 1400 µM | 89 s⁻¹ | 100% |  | 64000 M⁻¹ s⁻¹ |  |  | Activity [15]: 100%; Activity [16]: 100%
CCN1CCN(C(=O)N[C@@H](C(=O)N[C@@H]2C(=O)N3[C@@H]2SC(C)(C)[C@@H]3C(=O)O)c2ccccc2)C(=O)C1=O [PIPERACILLIN] |  |  |  |  |  |  |  |  |  |  |  |  |  |  |  |  | MIC (Escherichia coli [17]): 4 µg/mL; MIC (Escherichia coli [18]): 1 µg/mL; MIC (Pseudomonas aeruginosa [19]): 128 µg/mL; MIC (Escherichia coli [20]): 8 µg/mL; MIC (Pseudomonas aeruginosa [21]): 128 µg/mL; MIC (Escherichia coli [22]): 8 µg/mL
CC1(C)S[C@@H]2[C@H](NC(=O)[C@H](N)c3ccc(O)cc3)C(=O)N2[C@H]1C(=O)O [AMOXICILLIN] |  | 512 µg/mL (≈ 1400 µM) | 256 µg/mL (≈ 701 µM) | > 512 µg/mL |  |  |  |  |  |  |  |  | 4 µg/mL (≈ 10.9 µM) |  | 256 µg/mL (≈ 701 µM) | 256 µg/mL (≈ 701 µM) | 
